# In patent US20230017045A1, “PYRIDINE AND PYRIMIDINE CARBOXYLATE HERBICIDES AND METHODS OF USE THEREOF” (Dow AgroSciences LLC, priority 2017, published 2023):
# Tested on: test plant species
# Test: Post-emergent herbicidal activity test (greenhouse, foliar spray, visual growth reduction)
# Format: in vivo
# Conditions: post-emergence, 336 h, ECHCG: barnyardgrass (Echinochloa crus-galli), 140 g ai/ha, 14 days after application, read-out: Visual Growth Reduction (%) 14 Days After Application, ECHCG
# Summary of the method: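 Greenhouse plants at first–second true leaf stage sprayed overhead at 187 L/ha with compound in acetone/water/isopropanol/DMSO/crop oil/X-77 carrier; controls received solvent blank. Injury rated visually after 14 d on a 0–100% scale versus untreated and control plants, converted to growth reduction.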
row,Structure (SMILES),pest or weed control at 140 g/ha [%]
1,"Cc1cc(C(F)(F)F)cc(Cl)c1-c1ccc(Cl)c(C(=O)O)n1 [F259, 3-Chloro-6-(2-chloro-6-methyl-4-(trifluoromethyl)phenyl)picolinic acid]",45 to 59
2,"COC(=O)c1nc(-c2ccc3c(c2C)OC(F)(F)O3)c(F)cc1Cl [F233, Methyl 3-chloro-6-(2,2-difluoro-4-methylbenzo[d][1,3]dioxol-5-yl)-5-fluoropicolinate]",45 to 59

# Same assay, conditions: post-emergence, 336 h, IPOHE: ivy-leaf morning glory (Ipomoea hederacea), 140 g ai/ha, 14 days after application, read-out: Visual Growth Reduction (%) 14 Days After Application, IPOHE
row,Structure (SMILES),pest or weed control at 140 g/ha [%]
1,"Cc1cc(C(F)(F)F)cc(Cl)c1-c1ccc(Cl)c(C(=O)O)n1 [F259, 3-Chloro-6-(2-chloro-6-methyl-4-(trifluoromethyl)phenyl)picolinic acid]",95 to 100
2,"COC(=O)c1nc(-c2ccc3c(c2C)OC(F)(F)O3)c(F)cc1Cl [F233, Methyl 3-chloro-6-(2,2-difluoro-4-methylbenzo[d][1,3]dioxol-5-yl)-5-fluoropicolinate]",95 to 100

# Same assay, conditions: post-emergence, 336 h, KCHSC: kochia (Bassia scoparia), 140 g ai/ha, 14 days after application, read-out: Visual Growth Reduction (%) 14 Days After Application, KCHSC
row,Structure (SMILES),pest or weed control at 140 g/ha [%]
1,"Cc1cc(C(F)(F)F)cc(Cl)c1-c1ccc(Cl)c(C(=O)O)n1 [F259, 3-Chloro-6-(2-chloro-6-methyl-4-(trifluoromethyl)phenyl)picolinic acid]",60 to 74
2,"COC(=O)c1nc(-c2ccc3c(c2C)OC(F)(F)O3)c(F)cc1Cl [F233, Methyl 3-chloro-6-(2,2-difluoro-4-methylbenzo[d][1,3]dioxol-5-yl)-5-fluoropicolinate]",85 to 94

# Same assay, conditions: post-emergence, 336 h, ORYSA: rice (Oryza sativa), 140 g ai/ha, 14 days after application, read-out: Visual Growth Reduction (%) 14 Days After Application, ORYSA
row,Structure (SMILES),pest or weed control at 140 g/ha [%]
1,"Cc1cc(C(F)(F)F)cc(Cl)c1-c1ccc(Cl)c(C(=O)O)n1 [F259, 3-Chloro-6-(2-chloro-6-methyl-4-(trifluoromethyl)phenyl)picolinic acid]",0 to 29
2,"COC(=O)c1nc(-c2ccc3c(c2C)OC(F)(F)O3)c(F)cc1Cl [F233, Methyl 3-chloro-6-(2,2-difluoro-4-methylbenzo[d][1,3]dioxol-5-yl)-5-fluoropicolinate]",0 to 29

# Same assay, conditions: post-emergence, 336 h, SETFA: giant foxtail (Setaria faberi), 140 g ai/ha, 14 days after application, read-out: Visual Growth Reduction (%) 14 Days After Application, SETFA
row,Structure (SMILES),pest or weed control at 140 g/ha [%]
1,"Cc1cc(C(F)(F)F)cc(Cl)c1-c1ccc(Cl)c(C(=O)O)n1 [F259, 3-Chloro-6-(2-chloro-6-methyl-4-(trifluoromethyl)phenyl)picolinic acid]",75 to 84
2,"COC(=O)c1nc(-c2ccc3c(c2C)OC(F)(F)O3)c(F)cc1Cl [F233, Methyl 3-chloro-6-(2,2-difluoro-4-methylbenzo[d][1,3]dioxol-5-yl)-5-fluoropicolinate]",85 to 94

# Same assay, conditions: post-emergence, 336 h, SORVU: grain sorghum (Sorghum vulgare), 140 g ai/ha, 14 days after application, read-out: Visual Growth Reduction (%) 14 Days After Application, SORVU
row,Structure (SMILES),pest or weed control at 140 g/ha [%]
1,"Cc1cc(C(F)(F)F)cc(Cl)c1-c1ccc(Cl)c(C(=O)O)n1 [F259, 3-Chloro-6-(2-chloro-6-methyl-4-(trifluoromethyl)phenyl)picolinic acid]",85 to 94
2,"COC(=O)c1nc(-c2ccc3c(c2C)OC(F)(F)O3)c(F)cc1Cl [F233, Methyl 3-chloro-6-(2,2-difluoro-4-methylbenzo[d][1,3]dioxol-5-yl)-5-fluoropicolinate]",85 to 94

# Same assay, conditions: post-emergence, 336 h, STEME: common chickweed (Stellaria media), 140 g ai/ha, 14 days after application, read-out: Visual Growth Reduction (%) 14 Days After Application, STEME
row,Structure (SMILES),pest or weed control at 140 g/ha [%]
1,"Cc1cc(C(F)(F)F)cc(Cl)c1-c1ccc(Cl)c(C(=O)O)n1 [F259, 3-Chloro-6-(2-chloro-6-methyl-4-(trifluoromethyl)phenyl)picolinic acid]",0 to 29
2,"COC(=O)c1nc(-c2ccc3c(c2C)OC(F)(F)O3)c(F)cc1Cl [F233, Methyl 3-chloro-6-(2,2-difluoro-4-methylbenzo[d][1,3]dioxol-5-yl)-5-fluoropicolinate]",45 to 59

# Same assay, conditions: post-emergence, 336 h, TRZAS: wheat, spring (Triticum aestivum), 140 g ai/ha, 14 days after application, read-out: Visual Growth Reduction (%) 14 Days After Application, TRZAS
row,Structure (SMILES),pest or weed control at 140 g/ha [%]
1,"Cc1cc(C(F)(F)F)cc(Cl)c1-c1ccc(Cl)c(C(=O)O)n1 [F259, 3-Chloro-6-(2-chloro-6-methyl-4-(trifluoromethyl)phenyl)picolinic acid]",45 to 59
2,"COC(=O)c1nc(-c2ccc3c(c2C)OC(F)(F)O3)c(F)cc1Cl [F233, Methyl 3-chloro-6-(2,2-difluoro-4-methylbenzo[d][1,3]dioxol-5-yl)-5-fluoropicolinate]",60 to 74

# Same assay, conditions: post-emergence, 336 h, blackgrass (Alopecurus myosuroides), 14 Days After Application, 140 g ai/ha, read-out: Visual Growth Reduction (%) ALOMY
row,Structure (SMILES),pest or weed control at 140 g/ha [%]
1,"Cc1cc(C(F)(F)F)cc(Cl)c1-c1ccc(Cl)c(C(=O)O)n1 [F259, 3-Chloro-6-(2-chloro-6-methyl-4-(trifluoromethyl)phenyl)picolinic acid]",0 to 29
2,"COC(=O)c1nc(-c2ccc3c(c2C)OC(F)(F)O3)c(F)cc1Cl [F233, Methyl 3-chloro-6-(2,2-difluoro-4-methylbenzo[d][1,3]dioxol-5-yl)-5-fluoropicolinate]",75 to 84

# Same assay, conditions: post-emergence, 336 h, canada thistle (Cirsium arvense), 14 Days After Application, 140 g ai/ha, read-out: Visual Growth Reduction (%) CIRAR
row,Structure (SMILES),pest or weed control at 140 g/ha [%]
1,"Cc1cc(C(F)(F)F)cc(Cl)c1-c1ccc(Cl)c(C(=O)O)n1 [F259, 3-Chloro-6-(2-chloro-6-methyl-4-(trifluoromethyl)phenyl)picolinic acid]",75 to 84
2,"COC(=O)c1nc(-c2ccc3c(c2C)OC(F)(F)O3)c(F)cc1Cl [F233, Methyl 3-chloro-6-(2,2-difluoro-4-methylbenzo[d][1,3]dioxol-5-yl)-5-fluoropicolinate]",95 to 100

# Same assay, conditions: post-emergence, 336 h, crabgrass (Digitaria sanguinalis), 14 Days After Application, 140 g ai/ha, read-out: Visual Growth Reduction (%) DIGSA
row,Structure (SMILES),pest or weed control at 140 g/ha [%]
1,"Cc1cc(C(F)(F)F)cc(Cl)c1-c1ccc(Cl)c(C(=O)O)n1 [F259, 3-Chloro-6-(2-chloro-6-methyl-4-(trifluoromethyl)phenyl)picolinic acid]",60 to 74
2,"COC(=O)c1nc(-c2ccc3c(c2C)OC(F)(F)O3)c(F)cc1Cl [F233, Methyl 3-chloro-6-(2,2-difluoro-4-methylbenzo[d][1,3]dioxol-5-yl)-5-fluoropicolinate]",95 to 100

# Same assay, conditions: post-emergence, 336 h, lambsquarters (Chenopodium album), 14 Days After Application, 140 g ai/ha, read-out: Visual Growth Reduction (%) CHEAL
row,Structure (SMILES),pest or weed control at 140 g/ha [%]
1,"Cc1cc(C(F)(F)F)cc(Cl)c1-c1ccc(Cl)c(C(=O)O)n1 [F259, 3-Chloro-6-(2-chloro-6-methyl-4-(trifluoromethyl)phenyl)picolinic acid]",75 to 84
2,"COC(=O)c1nc(-c2ccc3c(c2C)OC(F)(F)O3)c(F)cc1Cl [F233, Methyl 3-chloro-6-(2,2-difluoro-4-methylbenzo[d][1,3]dioxol-5-yl)-5-fluoropicolinate]",95 to 100

# Same assay, conditions: post-emergence, 336 h, redroot pigweed (Amaranthus retroflexus), 14 Days After Application, 140 g ai/ha, read-out: Visual Growth Reduction (%) AMARE
row,Structure (SMILES),pest or weed control at 140 g/ha [%]
1,"Cc1cc(C(F)(F)F)cc(Cl)c1-c1ccc(Cl)c(C(=O)O)n1 [F259, 3-Chloro-6-(2-chloro-6-methyl-4-(trifluoromethyl)phenyl)picolinic acid]",95 to 100
2,"COC(=O)c1nc(-c2ccc3c(c2C)OC(F)(F)O3)c(F)cc1Cl [F233, Methyl 3-chloro-6-(2,2-difluoro-4-methylbenzo[d][1,3]dioxol-5-yl)-5-fluoropicolinate]",95 to 100

# Same assay, conditions: post-emergence, 336 h, wild oat (Avena fatua), 14 Days After Application, 140 g ai/ha, read-out: Visual Growth Reduction (%) AVEFA
row,Structure (SMILES),pest or weed control at 140 g/ha [%]
1,"Cc1cc(C(F)(F)F)cc(Cl)c1-c1ccc(Cl)c(C(=O)O)n1 [F259, 3-Chloro-6-(2-chloro-6-methyl-4-(trifluoromethyl)phenyl)picolinic acid]",0 to 29
2,"COC(=O)c1nc(-c2ccc3c(c2C)OC(F)(F)O3)c(F)cc1Cl [F233, Methyl 3-chloro-6-(2,2-difluoro-4-methylbenzo[d][1,3]dioxol-5-yl)-5-fluoropicolinate]",45 to 59

# Same assay, conditions: post-emergence, 336 h, yellow nutsedge (Cyperus esculentus), 14 Days After Application, 140 g ai/ha, read-out: Visual Growth Reduction (%) CYPES
row,Structure (SMILES),pest or weed control at 140 g/ha [%]
1,"Cc1cc(C(F)(F)F)cc(Cl)c1-c1ccc(Cl)c(C(=O)O)n1 [F259, 3-Chloro-6-(2-chloro-6-methyl-4-(trifluoromethyl)phenyl)picolinic acid]",0 to 29
2,"COC(=O)c1nc(-c2ccc3c(c2C)OC(F)(F)O3)c(F)cc1Cl [F233, Methyl 3-chloro-6-(2,2-difluoro-4-methylbenzo[d][1,3]dioxol-5-yl)-5-fluoropicolinate]",45 to 59
